For data set [1] the following is noted: for time of continuous stirring until it went into solution: 10 mg/ml in 13% w/v sulfobutyl ether β-cyclodextrin in 0.9% saline; for dissolution at a concentration of 10 mg/ml: 13% w/v sulfobutyl ether β-cyclodextrin in 0.9% saline.
Another data set deals with rats. Put plainly: Effect of Captisol premedication on the death rate of Althesin.
Setting [2] is: SBECD7 (13% solution) premed 5.25 mls/kg 60 s before Althesin @ 16 x AD95 (52.5 mg/kg alphaxalone iv), 10 rats.

Consider 3 compounds from patent publication US8975245B2, “Anaesthetic formulation” (Drawbridge Pharmaceuticals Pty Ltd, priority 2010, dated 2015).

As to `C[C@]12CC[C@@H](O)C[C@@H]1CC[C@H]1[C@@H]3CC[C@H](C(=O)CO)[C@@]3(C)CC(=O)[C@@H]12` [alphadolone], in data set [1], the “time of continuous stirring until it went into solution” value is 4 h and the “dissolution at a concentration of 10 mg/ml” value is “dissolved completely”.
In the case of `CC(=O)[C@H]1CC[C@H]2[C@@H]3CC[C@@H]4C[C@H](O)CC[C@]4(C)[C@H]3CC[C@]12C` [pregnanolone], in data set [1], the “time of continuous stirring until it went into solution” value turned out to be 4 h and the “dissolution at a concentration of 10 mg/ml” value is recorded as “dissolved incompletely”.
With “(7) sulfobutyl ether β-cyclodextrin [SBECD7]”, in the data set with rats (setting [2]), the “n did not die” value stood at 8 and the n died is 2. In addition, the “effect on mortality caused by alphaxalone as Althesin” value with rats (premedication 60 s before 52.5 mg/kg alphaxalone as Althesin) is “statistically and clinically significant reduction in the mortality”.
